Measured values reported in ChEMBL document CHEMBL4396916, “Novel potent substituted 4-amino-2-thiopyrimidines as dual VEGFR-2 and BRAF kinase inhibitors” (Eur J Med Chem, 2019).

Tests used:
[1] = target: Vascular endothelial growth factor receptor 2 (Homo sapiens, UniProt P35968); assay: Inhibition of human N-terminal GST tagged VEGFR-2 expressed in baculovirus infected Sf9 cells using poly (Glu,Tyr) 4:1 as substrate in presence of ATP by Kinase-Glo luminescence assay
CCRF-CEM = assay: Growth inhibition of human CCRF-CEM cells at 10 uM incubated for 48 hrs by sulforhodamine B assay relative to control; assay type: functional; conditions: read-out: GI
K562 = assay: Growth inhibition of human K562 cells at 10 uM incubated for 48 hrs by sulforhodamine B assay relative to control; assay type: functional; conditions: K562, 48 h, read-out: GI
MOLT-4 = assay: Growth inhibition of human MOLT4 cells at 10 uM incubated for 48 hrs by sulforhodamine B assay relative to control; assay type: functional; conditions: MOLT-4, 48 h, read-out: GI
RPMI-8226 = assay: Growth inhibition of human RPMI8226 cells at 10 uM incubated for 48 hrs by sulforhodamine B assay relative to control; assay type: functional; conditions: RPMI-8226, 48 h, read-out: GI
SR = assay: Growth inhibition of human SR cells at 10 uM incubated for 48 hrs by sulforhodamine B assay relative to control; assay type: functional; conditions: read-out: GI
EKVX = assay: Growth inhibition of human EKVX cells at 10 uM incubated for 48 hrs by sulforhodamine B assay relative to control; assay type: functional; conditions: read-out: GI
HOP-92 = assay: Growth inhibition of human HOP92 cells at 10 uM incubated for 48 hrs by sulforhodamine B assay relative to control; assay type: functional; conditions: HOP-92, 48 h, read-out: GI
NCI-H226 = assay: Growth inhibition of human NCI-H226 cells at 10 uM incubated for 48 hrs by sulforhodamine B assay relative to control; assay type: functional; conditions: NCI-H226, 48 h, read-out: GI
NCI-H23 = assay: Growth inhibition of human NCI-H23 cells at 10 uM incubated for 48 hrs by sulforhodamine B assay relative to control; assay type: functional; conditions: NCI-H23, 48 h, read-out: GI
NCI-H460 = assay: Growth inhibition of human NCI-H460 cells at 10 uM incubated for 48 hrs by sulforhodamine B assay relative to control; assay type: functional; conditions: NCI-H460, 48 h, read-out: GI
NCI-H522 = assay: Growth inhibition of human NCI-H522 cells at 10 uM incubated for 48 hrs by sulforhodamine B assay relative to control; assay type: functional; conditions: NCI-H522, 48 h, read-out: GI
HCT-116 = assay: Growth inhibition of human HCT116 cells at 10 uM incubated for 48 hrs by sulforhodamine B assay relative to control; assay type: functional; conditions: HCT-116, 48 h, read-out: GI
HCT-15 = assay: Growth inhibition of human HCT15 cells at 10 uM incubated for 48 hrs by sulforhodamine B assay relative to control; assay type: functional; conditions: HCT-15, 48 h, read-out: GI
HT-29 = assay: Growth inhibition of human HT-29 cells at 10 uM incubated for 48 hrs by sulforhodamine B assay relative to control; assay type: functional; conditions: HT-29, 48 h, read-out: GI
KM12 = assay: Growth inhibition of human KM12 cells at 10 uM incubated for 48 hrs by sulforhodamine B assay relative to control; assay type: functional; conditions: KM12, 48 h, read-out: GI
SF-539 = assay: Growth inhibition of human SF539 cells at 10 uM incubated for 48 hrs by sulforhodamine B assay relative to control; assay type: functional; conditions: SF-539, 48 h, read-out: GI
SNB-19 = assay: Growth inhibition of human SNB19 cells at 10 uM incubated for 48 hrs by sulforhodamine B assay relative to control; assay type: functional; conditions: SNB-19, 48 h, read-out: GI
SNB-75 = assay: Growth inhibition of human SNB75 cells at 10 uM incubated for 48 hrs by sulforhodamine B assay relative to control; assay type: functional; conditions: SNB-75, 48 h, read-out: GI
LOX IMVI = assay: Growth inhibition of human LOXIMVI cells at 10 uM incubated for 48 hrs by sulforhodamine B assay relative to control; assay type: functional; conditions: read-out: GI
M14 = assay: Growth inhibition of human M14 cells at 10 uM incubated for 48 hrs by sulforhodamine B assay relative to control; assay type: functional; conditions: M14, 48 h, read-out: GI
MDA-MB-435 = assay: Growth inhibition of human MDA-MB-435 cells at 10 uM incubated for 48 hrs by sulforhodamine B assay relative to control; assay type: functional; conditions: MDA-MB-435, 48 h, read-out: GI
SK-MEL-5 = assay: Growth inhibition of human SK-MEL-5 cells at 10 uM incubated for 48 hrs by sulforhodamine B assay relative to control; assay type: functional; conditions: SK-MEL-5, 48 h, read-out: GI
UACC-62 = assay: Growth inhibition of human UACC62 cells at 10 uM incubated for 48 hrs by sulforhodamine B assay relative to control; assay type: functional; conditions: UACC-62, 48 h, read-out: GI
IGROV-1 = assay: Growth inhibition of human IGROV1 cells at 10 uM incubated for 48 hrs by sulforhodamine B assay relative to control; assay type: functional; conditions: IGROV-1, 48 h, read-out: GI
OVCAR-3 = assay: Growth inhibition of human OVCAR3 cells at 10 uM incubated for 48 hrs by sulforhodamine B assay relative to control; assay type: functional; conditions: OVCAR-3, 48 h, read-out: GI
OVCAR-4 = assay: Growth inhibition of human OVCAR4 cells at 10 uM incubated for 48 hrs by sulforhodamine B assay relative to control; assay type: functional; conditions: OVCAR-4, 48 h, read-out: GI
OVCAR-8 = assay: Growth inhibition of human OVCAR8 cells at 10 uM incubated for 48 hrs by sulforhodamine B assay relative to control; assay type: functional; conditions: OVCAR-8, 48 h, read-out: GI
NCI/ADR-RES = assay: Growth inhibition of human NCI/ADR-RES cells at 10 uM incubated for 48 hrs by sulforhodamine B assay relative to control; assay type: functional; conditions: read-out: GI
A498 = assay: Growth inhibition of human A498 cells at 10 uM incubated for 48 hrs by sulforhodamine B assay relative to control; assay type: functional; conditions: A498, 48 h, read-out: GI
CAKI-1 = assay: Growth inhibition of human Caki1 cells at 10 uM incubated for 48 hrs by sulforhodamine B assay relative to control; assay type: functional; conditions: CAKI-1, 48 h, read-out: GI
RXF 393 = assay: Growth inhibition of human RXF393 cells at 10 uM incubated for 48 hrs by sulforhodamine B assay relative to control; assay type: functional; conditions: RXF 393, 48 h, read-out: GI
SN12C = assay: Growth inhibition of human SN12C cells at 10 uM incubated for 48 hrs by sulforhodamine B assay relative to control; assay type: functional; conditions: read-out: GI
UO-31 = assay: Growth inhibition of human UO31 cells at 10 uM incubated for 48 hrs by sulforhodamine B assay relative to control; assay type: functional; conditions: UO-31, 48 h, read-out: GI
PC-3 = assay: Growth inhibition of human PC3 cells at 10 uM incubated for 48 hrs by sulforhodamine B assay relative to control; assay type: functional; conditions: PC-3, 48 h, read-out: GI
MCF7 [2] = assay: Growth inhibition of human MCF7 cells at 10 uM incubated for 48 hrs by sulforhodamine B assay relative to control; assay type: functional; conditions: MCF7, 48 h, read-out: GI
MDA-MB-231 = assay: Growth inhibition of human MDA-MB-231 cells at 10 uM incubated for 48 hrs by sulforhodamine B assay relative to control; assay type: functional; conditions: MDA-MB-231, 48 h, read-out: GI
Hs-578T = assay: Growth inhibition of human Hs578T cells at 10 uM incubated for 48 hrs by sulforhodamine B assay relative to control; assay type: functional; conditions: read-out: GI
BT-549 = assay: Growth inhibition of human BT549 cells at 10 uM incubated for 48 hrs by sulforhodamine B assay relative to control; assay type: functional; conditions: BT-549, 48 h, read-out: GI
T47D [3] = assay: Growth inhibition of human T47D cells at 10 uM incubated for 48 hrs by sulforhodamine B assay relative to control; assay type: functional; conditions: read-out: GI
MDA-MB-468 = assay: Growth inhibition of human MDA-MB-468 cells at 10 uM incubated for 48 hrs by sulforhodamine B assay relative to control; assay type: functional; conditions: MDA-MB-468, 48 h, read-out: GI
MCF7 [4] = assay: Cytotoxicity against human MCF7 cells expressing VEGFR2 and wild type BRAF measured after 48 hrs by sulforhodamine B assay; assay type: functional, cell-based; conditions: MCF7, 48 h
T47D [5] = assay: Cytotoxicity against human T47D cells expressing wild type BRAF measured after 48 hrs by sulforhodamine B assay; assay type: functional, cell-based
MCF7 [6] = assay: Inhibition of VEGFR2 level in human MCF7 cells at 10 uM measured after 48 hrs by ELISA relative to control; assay type: functional; conditions: MCF7, 48 h

Vascular endothelial growth factor receptor 2, sequence (P35968 whole entry): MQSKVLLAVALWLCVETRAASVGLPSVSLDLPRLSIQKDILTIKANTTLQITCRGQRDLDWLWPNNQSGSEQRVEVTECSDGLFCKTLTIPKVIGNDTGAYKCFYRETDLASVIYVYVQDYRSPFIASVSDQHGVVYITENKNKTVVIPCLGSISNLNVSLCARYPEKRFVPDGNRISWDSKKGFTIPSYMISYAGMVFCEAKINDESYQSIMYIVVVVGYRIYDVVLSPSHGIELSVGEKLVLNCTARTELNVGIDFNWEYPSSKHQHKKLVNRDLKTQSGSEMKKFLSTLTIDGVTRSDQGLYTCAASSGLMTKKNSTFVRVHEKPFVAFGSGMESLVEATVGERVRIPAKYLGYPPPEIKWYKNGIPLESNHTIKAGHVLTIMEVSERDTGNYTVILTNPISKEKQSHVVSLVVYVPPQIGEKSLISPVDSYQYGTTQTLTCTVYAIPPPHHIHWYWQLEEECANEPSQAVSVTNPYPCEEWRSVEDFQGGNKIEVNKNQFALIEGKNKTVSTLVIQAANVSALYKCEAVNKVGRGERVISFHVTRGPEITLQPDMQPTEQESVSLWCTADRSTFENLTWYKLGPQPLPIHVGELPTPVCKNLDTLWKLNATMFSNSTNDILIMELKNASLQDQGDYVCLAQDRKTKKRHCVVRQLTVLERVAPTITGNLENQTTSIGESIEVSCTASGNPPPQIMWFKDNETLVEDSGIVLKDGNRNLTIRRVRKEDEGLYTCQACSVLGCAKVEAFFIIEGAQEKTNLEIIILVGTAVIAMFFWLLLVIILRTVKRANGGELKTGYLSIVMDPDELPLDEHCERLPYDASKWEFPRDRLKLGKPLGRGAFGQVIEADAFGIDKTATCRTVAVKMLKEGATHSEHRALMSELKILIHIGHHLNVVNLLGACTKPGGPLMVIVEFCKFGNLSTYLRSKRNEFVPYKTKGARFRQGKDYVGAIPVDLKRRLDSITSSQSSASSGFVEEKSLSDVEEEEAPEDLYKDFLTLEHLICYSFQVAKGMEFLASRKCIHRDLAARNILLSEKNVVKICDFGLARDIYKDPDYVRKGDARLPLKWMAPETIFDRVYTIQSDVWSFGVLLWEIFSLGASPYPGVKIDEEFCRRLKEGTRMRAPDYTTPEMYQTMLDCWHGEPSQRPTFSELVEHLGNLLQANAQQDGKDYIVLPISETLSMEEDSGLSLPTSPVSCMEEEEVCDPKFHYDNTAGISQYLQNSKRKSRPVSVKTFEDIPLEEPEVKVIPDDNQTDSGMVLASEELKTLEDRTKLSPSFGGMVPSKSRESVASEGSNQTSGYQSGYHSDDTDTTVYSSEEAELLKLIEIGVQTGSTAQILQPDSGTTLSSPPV

IC50 [1]: 0.42 µM
SMILES: COc1ccc(C(=O)CSc2nccc(Nc3cccc(C(C)=O)c3)n2)cc1
inhibition of growth at 10 µM (CCRF-CEM): 46%
inhibition of growth at 10 µM (K562): 37%
inhibition of growth at 10 µM (MOLT-4): 53%
inhibition of growth at 10 µM (RPMI-8226): 42%
inhibition of growth at 10 µM (SR): 35%
inhibition of growth at 10 µM (EKVX): 29%
inhibition of growth at 10 µM (HOP-92): 24%
inhibition of growth at 10 µM (NCI-H226): 35%
inhibition of growth at 10 µM (NCI-H23): 19%
inhibition of growth at 10 µM (NCI-H460): 14%
inhibition of growth at 10 µM (NCI-H522): 37%
inhibition of growth at 10 µM (HCT-116): 23%
inhibition of growth at 10 µM (HCT-15): 22%
inhibition of growth at 10 µM (HT-29): 11%
inhibition of growth at 10 µM (KM12): 15%
inhibition of growth at 10 µM (SF-539): 12%
inhibition of growth at 10 µM (SNB-19): 13%
inhibition of growth at 10 µM (SNB-75): 31%
inhibition of growth at 10 µM (LOX IMVI): 23%
inhibition of growth at 10 µM (M14): 15%
inhibition of growth at 10 µM (MDA-MB-435): 15%
inhibition of growth at 10 µM (SK-MEL-5): 22%
inhibition of growth at 10 µM (UACC-62): 35%
inhibition of growth at 10 µM (IGROV-1): 18%
inhibition of growth at 10 µM (OVCAR-3): 12%
inhibition of growth at 10 µM (OVCAR-4): 19%
inhibition of growth at 10 µM (OVCAR-8): 32%
inhibition of growth at 10 µM (NCI/ADR-RES): 40%
inhibition of growth at 10 µM (A498): 22%
inhibition of growth at 10 µM (CAKI-1): 35%
inhibition of growth at 10 µM (RXF 393): 14%
inhibition of growth at 10 µM (SN12C): 22%
inhibition of growth at 10 µM (UO-31): 55%
inhibition of growth at 10 µM (PC-3): 37%
inhibition of growth at 10 µM (MCF7 [2]): 11%
inhibition of growth at 10 µM (MDA-MB-231): 27%
inhibition of growth at 10 µM (Hs-578T): 19%
inhibition of growth at 10 µM (BT-549): 27%
inhibition of growth at 10 µM (T47D [3]): 45%
inhibition of growth at 10 µM (MDA-MB-468): 34%
IC50 (MCF7 [4]): 67.1 µM
IC50 (T47D [5]): 13.2 µM
inhibition at 10 µM (MCF7 [6]): 16%
